Inconclusive results are not listed. The source made the active and inactive calls.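 Rule for the calls: active = compounds with IC50 under 50 µM in each of two repeat runs and on average; inconclusive = just one of the two runs above 50 µM; inactive = both runs and average above 50 µM.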
Legend:
[1] = tested on: L929 zVAD necroptosis rescue, ATP luminescence, 24 h; experiment: L929 protection from caspase-blocker death, IC50 – L929 cells, duplicate IC50, dose response (AID 463181)
[2] = as above; settings: L929 zVAD necroptosis rescue, ATP luminescence, 24 h; inhibition of cell death; at 50 µM; stronger effect = higher value

Cn1nc(C(C)(C)C)cc1NC(=O)Nc1cc(Cl)cc(Cl)c1
IC50 [1]: > 20 µM (inactive)
inhibition [2]: 2.91%

Cc1ccc(-c2nc(Nc3ccccc3)n[nH]2)cc1
IC50 [1]: > 20 µM (inactive)
inhibition [2]: 0.11%

O=C(CSc1nnnn1-c1ccc(O)cc1)Nc1cccc(S(=O)(=O)N2CCCC2)c1
IC50 [1]: 5.89 µM
inhibition [2]: 86.9%

CCCc1cc(C(=O)Nc2nccs2)cs1
IC50 [1]: 9.59 µM
inhibition [2]: 76.6%

c1ccc2c3c([nH]c2c1)-c1[nH]ncc1CC3
IC50 [1]: 0.194 µM
inhibition [2]: 78.5%

O=C(CSc1nnc(NC2CCCCC2)s1)Nc1ccc2c(c1)C(=O)c1ccccc1C2=O
IC50 [1]: > 20 µM (inactive)
inhibition [2]: 0.754%

Cc1cnc(NC(=O)c2cc3c(s2)CCCC3)s1
IC50 [1]: > 20 µM (inactive)
inhibition [2]: 10.4%

Clc1ccc(COn2ccnc2)cc1Cl
IC50 [1]: 10.9 µM
inhibition [2]: 82.6%

Nc1ccccc1Nc1cc(-c2ccccc2)[nH]n1
IC50 [1]: 2.78 µM
inhibition [2]: 90.9%

Cc1cc(N/N=C/c2ccncc2)nc2ccccc12
IC50 [1]: 18.5 µM
inhibition [2]: 81.6%

CN(C)S(=O)(=O)c1ccc(Cl)c(NC(=O)CSc2nnnn2-c2ccc(O)cc2)c1
IC50 [1]: 17.7 µM
inhibition [2]: 78.6%

Cc1ccc(C2CC(=O)NC(SCC(=O)Nc3nccs3)=C2C#N)cc1 (stereo not drawn)
IC50 [1]: 0.251 µM
inhibition [2]: 80.8%

CCN1C(=O)/C(=C/c2ccc(C)s2)NC1=S
IC50 [1]: 2.05 µM
inhibition [2]: 88.7%

CCc1cccc2c(C(=O)COC(=O)c3ccc(O)cc3)c[nH]c12
IC50 [1]: > 20 µM (inactive)
inhibition [2]: 1.41%

O=C(C1=NNCC1c1ccc(Cl)cc1)C1CO1 (stereo not drawn)
IC50 [1]: 3.69 µM
inhibition [2]: 103%

C[C@@H]1C[C@@H]2O[C@H]2/C=C\C=C\C(=O)Cc2c(Cl)c(O)cc(O)c2C(=O)O1
IC50 [1]: 0.372 µM
inhibition [2]: 120%

Cc1ccc2[nH]c3c(c2c1)CCc1cn[nH]c1-3
IC50 [1]: 1.29 µM
inhibition [2]: 82.2%

CCN(CC)CCn1c2ccccc2c2cnc(N)c(C#N)c21
IC50 [1]: 17.7 µM
inhibition [2]: 68.7%

Cc1ccc(C(=O)Nc2cccc(C(F)(F)F)c2)cc1Nc1cnccn1
IC50 [1]: 10.8 µM
inhibition [2]: 74.3%

C[C@H]1C[C@@H](C)C(=O)[C@@H]([C@H](O)CC2CC(=O)NC(=O)C2)C1
IC50 [1]: 0.986 µM
inhibition [2]: 112%

CC(=O)Nc1ccc(/C=N/Nc2nc3ccccc3s2)cc1
IC50 [1]: 18.8 µM
inhibition [2]: 70.2%

Cc1cn(-c2cc(C(=O)Nc3ccc(C)c(NC(=O)C(=O)c4c[nH]c5ccccc45)c3)cc(C(F)(F)F)c2)cn1
IC50 [1]: > 20 µM (inactive)
inhibition [2]: 1.07%

OCCCNc1nccc(-c2cc(Nc3cccc(Cl)c3)ncn2)n1
IC50 [1]: 10.7 µM
inhibition [2]: 82.7%

O=C(CCl)Nc1cc(SCC(O)CO)cc([N+](=O)[O-])c1 (stereo not drawn)
IC50 [1]: 14.4 µM
inhibition [2]: 94.4%

COc1cc(/C=N/Nc2nc3ccccc3s2)ccc1OC(=O)c1ccccc1F
IC50 [1]: > 20 µM (inactive)
inhibition [2]: 1.24%

Oc1ccc(/C=N/Nc2ccc(C(F)(F)F)cn2)cc1O
IC50 [1]: 4.19 µM
inhibition [2]: 87.6%

COc1cc(NC(=O)c2cnc(N)s2)cc(C(=O)Nc2cccc(C(F)(F)F)c2)c1
IC50 [1]: 17.4 µM
inhibition [2]: 75.8%

Cn1c(N)c(C(=O)N/N=C/c2ccccc2)sc1=S
IC50 [1]: 17.3 µM
inhibition [2]: 76.3%

COc1cc(/C=N/Nc2ccccn2)ccc1O
IC50 [1]: 14.9 µM
inhibition [2]: 91.1%

O=C(/C=C/c1cccc(F)c1)Nc1nccs1
IC50 [1]: > 20 µM (inactive)
inhibition [2]: 1.43%

CCN1CCN(Cc2ccc(NC(=O)c3cc(NC(=O)c4cnn(-c5ccccc5)c4N)cc(OC)c3)cc2C(F)(F)F)CC1
IC50 [1]: 9.96 µM
inhibition [2]: 80.3%

CC(=O)OC[C@]12CCC(C)=C[C@H]1O[C@@H]1[C@H](O)[C@@H](OC(C)=O)[C@@]2(C)[C@]12CO2
IC50 [1]: < 0.039 µM
inhibition [2]: 114%

O=C(OCn1ncc(Br)c(Br)c1=O)c1ccc(F)cc1
IC50 [1]: > 20 µM (inactive)
inhibition [2]: 8.06%

Cc1noc(C)c1/C=N/Nc1ccccn1
IC50 [1]: 16.9 µM
inhibition [2]: 81.6%

COc1ccc(/C=N/Nc2nc3ccccc3s2)cc1O
IC50 [1]: 17.3 µM
inhibition [2]: 72.2%

Cc1cnc(NC(=O)c2ccc(OCC3CCCO3)cc2)s1 (stereo not drawn)
IC50 [1]: 8.49 µM
inhibition [2]: 74.2%

C=C1C(=O)[C@@]23[C@H](O)C[C@@H]4C(C)(C)CC[C@H](O)[C@@]4(C)[C@@H]2CC[C@@H]1[C@H]3O
IC50 [1]: 10.1 µM
inhibition [2]: 144%

O=C(Nc1nccs1)c1ccc(CSc2nnnn2-c2ccccc2)cc1
IC50 [1]: > 20 µM (inactive)
inhibition [2]: 0.93%

O=C(Nc1cccc(Cl)c1)N1N=CCC1c1ccccc1 (stereo not drawn)
IC50 [1]: 16.9 µM
inhibition [2]: 81.4%

CCN(CC)Cc1cc2[nH]c3c4ccc(Cl)cc4ncc3c2cc1OC
IC50 [1]: > 20 µM (inactive)
inhibition [2]: 0.811%

COc1ccc(/C=C2\N=C(SC)NC2=O)cc1
IC50 [1]: 5.22 µM
inhibition [2]: 80.6%

CCN1CCN(Cc2ccc(NC(=O)c3ccc(C)c(NC(=O)c4nccnc4N)c3)cc2C(F)(F)F)CC1
IC50 [1]: 1.46 µM
inhibition [2]: 74%

Cn1nnnc1SCc1ccc(C(=O)Nc2nccs2)cc1
IC50 [1]: 16.9 µM
inhibition [2]: 76.4%

COC(=O)c1ccn(Cc2ccccc2Cl)n1
IC50 [1]: 16.3 µM
inhibition [2]: 81.2%

COc1ccc(N=Cc2c(O)[nH]c3ccccc23)cc1OC
IC50 [1]: 6.83 µM
inhibition [2]: 81.8%

Cc1ccc(/C=N\Nc2nc3ccc(Cl)cc3[nH]2)o1
IC50 [1]: > 20 µM (inactive)
inhibition [2]: 0.613%

Clc1ccc2[nH]c3c(c2c1)CCc1cn[nH]c1-3
IC50 [1]: 2.63 µM
inhibition [2]: 103%

COc1cc(N=Cc2c(O)[nH]c3ccccc23)cc(OC)c1OC
IC50 [1]: 7.09 µM
inhibition [2]: 89.1%

O=C1Nc2ccccc2/C1=C/c1cnc[nH]1
IC50 [1]: 9.67 µM
inhibition [2]: 85.9%

O=C1C=CC(O)(c2cc(=O)c3c(O)cc(O)cc3o2)C=C1
IC50 [1]: 10.1 µM
inhibition [2]: 78.5%

O=C(Nc1nccs1)c1ccc(S(=O)(=O)NCc2cccs2)cc1
IC50 [1]: > 20 µM (inactive)
inhibition [2]: 2.91%

CCN1CCN(Cc2ccc(NC(=O)c3ccc(C)c(NC(=O)c4csc(-c5ccncc5)n4)c3)cc2C(F)(F)F)CC1
IC50 [1]: 5.9 µM
inhibition [2]: 90.1%

CC(=O)Nc1ccc(Sc2ncccc2C(=O)Nc2ccc(OC(F)(F)F)cc2)cn1
IC50 [1]: > 20 µM (inactive)
inhibition [2]: 5.08%

O=C(C1=NNCC1c1ccccc1)C1CO1 (stereo not drawn)
IC50 [1]: 15.8 µM
inhibition [2]: 87.3%

COc1ccc(-n2cnnc2SCC(=O)Nc2cc(C(C)(C)C)nn2-c2ccccc2)cc1
IC50 [1]: 4.77 µM
inhibition [2]: 70%

Cc1[nH]c2ccccc2c1/C=N/Nc1ccccn1
IC50 [1]: 15 µM
inhibition [2]: 92.7%

Cc1ccc2c(c1)C(C)CC(C)(C)N2C(=O)NC1CCCCC1 (stereo not drawn)
IC50 [1]: > 20 µM (inactive)
inhibition [2]: 1.73%

Cc1ccc(NC(=O)CSc2nnnn2-c2ccc3c(c2)OCO3)cc1C
IC50 [1]: > 20 µM (inactive)
inhibition [2]: 0.243%

Nc1nnnn1/N=C/C(Br)=C/c1ccccc1
IC50 [1]: > 20 µM (inactive)
inhibition [2]: 0.0265%

COc1cc(/C=N/Nc2ccc(C(F)(F)F)cn2)ccc1O
IC50 [1]: 16.7 µM
inhibition [2]: 82.3%

Brc1ccc(COn2ccnc2)cc1
IC50 [1]: 16.8 µM
inhibition [2]: 79.8%

O=C(CSc1nnnn1-c1ccc2c(c1)OCCO2)Nc1nc2c(s1)CCCC2
IC50 [1]: > 20 µM (inactive)
inhibition [2]: 0.775%

CN(CC1CCCO1)S(=O)(=O)c1ccc(C(=O)Nc2nccs2)cc1 (stereo not drawn)
IC50 [1]: 7.39 µM
inhibition [2]: 97.5%

COc1ccc(/C=N/Nc2ccccn2)cc1OC
IC50 [1]: 16.3 µM
inhibition [2]: 80.7%

From PubChem BioAssay AID463181 (University of Pittsburgh Molecular Library Screening Center, 2010)
